Tests used:
[1] = tested on: glycolysis in whole blood; settings: final concentration about 0.9 to 20 mM; testing within 16 hours; cited from earlier work
[2] = tested on: glycolysis in whole blood; experiment: Glucose stability of whole blood specimens with added D,L glyceraldehyde, YSI glucose concentration over weeks of storage; format: cell-based; settings: about 2° C. to about 10° C.
Method: FIG. 4 illustrates the YSI glucose concentration (mg/dL) of blood specimens containing EDTA at various final concentrations of a mixture of D,L glyceraldehydes at 0.0, 1.0, 5.0, 10.0 and 20.0 mM, obtained over 4 weeks of real time testing at about 2° C. to about 10° C.; FIG. 5 illustrates the YSI 2300 (reference analyzer) glucose concentration (mg/dL) of blood specimens treated at various concentrations of D,L glyceraldehyde over 3 weeks at about 2° C. to about 10° C., wherein the control is an untreated blood sample; In one method, a sample containing a cellular component, (i.e. RBCs, WBCs) is collected into a microfuge or vacuum tube, e.g. VACUTAINER®, (such as supplied by Becton, Dickinson and Company, Franklin Lakes, N.J.). The initial concentration of glucose in the sample can be […]. The vacuum tube may contain any appropriate anticoagulant agent known to one of ordinary skill, including oxalate, EDTA, citrate, heparin or combination thereof, to form a suspension. If used, the anticoagulant may be added together simultaneously, or sequentially, to the sample. The resulting suspension is incubated at about 2° C. to about 30° C. and allowed to undergo glycolysis until the glucose level is less than about 20 mg/dL. […]

red blood cells = experiment: RBC treatment with glyceraldehyde and subsequent removal; glucose recovery of RBCs recombined with plasma and glucose; format: cell-based, human; settings: RBCs treated with 20, 35, and 50 mM for 72 hours at 2 to 10° C., washed, after 34 days, FIG. 6
Method: FIG. 6 illustrates the YSI 2300 (reference analyzer) glucose concentration (mg/dL) of blood specimens at various concentrations of D,L glyceraldehyde respectively over 4 weeks at about 2° C. to about 10° C., wherein the control is untreated blood sample. Red blood cells were treated, washed and recombined with plasma and glucose. RBC Treatment w Glyceraldehyde & Subsequent Removal • 1) Employ fresh whole blood collected in standard anticoagulant (i.e. EDTA, heparin, sodium citrate) from a healthy adult population. Alternative blood sources may include bovine, avian, porcine, equine, goat, or alligator. • 2) Allow sufficient time for the natural enzymatic breakdown of glucose to occur (i.e. glycolysis). Deplete glucose concentration to less than about 20 mg/dl. Preferred storage at 2°-30°C. • 3) Separate RBC cellular component from plasma fraction via gravity settling and or centrifugation. If desired, the removed plasma fraction may be retained for reintroduction. • 4) Wash RBC cellular component with isotonic phosphate buffered saline solution (3×). Exchange diluent via centrifugation is preferred (15 minutes @ 1500 rpm (650× g). • 5) Adjust RBC concentration to approximately 4.0×10^6/mm^3±0.25×10^6/mm^3. […]

O=CC(O)CO (racemic) [D,L glyceraldehyde, 2,3-dihydroxypropanal]
glucose loss of stabilized whole blood sample [1]: negligible glucose loss | loss of YSI glucose concentration ([2]; 20.0 mM D,L glyceraldehyde in EDTA blood, at 4 weeks, FIG. 4): less than 10% | loss of YSI glucose concentration ([2]; 30.0 mM D,L glyceraldehyde in EDTA blood, glucose burned down then added back, at 3 weeks, FIG. 5): less than 3.5% | loss in glucose recovery (red blood cells): < 5%
